Experimental data from patent publication US20240307351A1, “AGENT FOR ANTI-AGING OR FOR CELLULAR REJUVENATION” (TOHOKU UNIVERSITY, priority 2022, published 2024).

Experiments:
[1] = system: various SIRTs (SIRT1, SIRT2, SIRT3, SIRT5, SIRT6, and SIRT7); assay: Expression levels of various SIRTs in HEI-OC1 cells by Western blotting; type: cell-based, mouse; conditions: HEI-OC1 cell line, 1, 3, 10 or 30 μM, 24 hours, compared with absence of MA5 (0.1% DMSO)
Protocol: HEI-OC1 cells (mouse inner ear cell line) at 1×10^6 cell/dish were seeded and cultured in a dish containing 10 mL of a culture solution (low-glucose-containing DMEM medium (glucose concentration of 1.0 g/dL) to which 10 wt. % of FBS was added). After one day, 0.1% DMSO as a solvent of the compound or Compound #5 at various concentrations (1 μM, 3 μM, 10 μM, or 30 μM) was added, and the mixture was cultured for 24 hours ([Compound #5 addition group]). After completion of culture, the cells were collected, disrupted by a typical method, and the expression levels of various SIRTs (SIRT1, SIRT2, SIRT3, SIRT5, SIRT6, and SIRT7) in the cells were analyzed by Western blotting (see FIGS. 1-1 and 1-2).

[2] = system: NDUFS4 homozygous knockout mice (Ndufs4−/−mice); assay: HE staining of brown adipose tissue of Ndufs4−/− mice; type: in vivo, mouse; conditions: 10 mg/day per kg, 50 days, compared with CMC administration group
Protocol: Compound #5 was administered to NDUFS4 homozygous knockout mice (Ndufs4−/−mice) (28 days old) at a dose of 10 mg/day per kg of mouse weight for 50 days ([Compound #5 administration group]).
(§1) In addition, CMC (carboxymethylcellulose) was administered to NDUFS4 homozygous knockout mice (Ndufs4−/−mice) at a dose of 10 mg/day per kg of mouse weight for 50 days ([CMC administration group; Control group]).
Since the NDUFS4 homozygous knockout mice are mice with abnormal mitochondrial function and the abnormal mitochondrial function is one of aging phenomena, the NDUFS4 homozygous knockout mice can be used as one type of aging model mice.

[3] = system: PPARγ Gene; assay: Quantitative PCR of PPARγ Gene in brown adipocytes of Ndufs4−/− mice; type: in vivo, mouse; conditions: 10 mg/day per kg, 50 days, vs CMC administration group
Protocol: (§2) Compound #5 was administered to NDUFS4 homozygous knockout mice (Ndufs4−/−mice) (4 weeks old) at a dose of 10 mg/day per kg of mouse weight for 50 days ([Compound #5 administration group]).
as §1
(§3) Brown adipocytes were collected from the mice of [Compound #5 administration group] and [CMC administration group]. Total RNA was extracted from the brown adipocytes, and cDNA was prepared therefrom and used for measurement of mRNA expression level. The measurement was performed by a quantitative PCR method. The expression level of mRNA was determined with a relative ratio to β-actin used as an internal standard. As primers and probes, the following commercially available products (manufactured by Thermo Fisher Scientific Inc., and the like) were used. • Mouse Acts (actin beta, β-actin) Mm02619580_g1, Cat #4331182 • Mouse Ucp1 (uncoupling protein 1), Mm00494069_m1, Cat #4331182 • Mouse Pparg (PPARγ, peroxisome proliferator activated receptor gamma), Mm00440945_m1, Cat #4331182p • Mouse Fabp4 (fatty acid binding protein 4), Mm00445880_m1, Cat #4331182

[4] = system: FABP4 Gene; assay: Quantitative PCR of FABP4 Gene in brown adipocytes of Ndufs4−/− mice; type: in vivo, mouse; conditions: 10 mg/day per kg, 50 days, vs CMC administration group
Protocol: as §2, §1, §3

[5] = system: C57BL6 mice (12 weeks old); assay: Treadmill running test of young mice; type: in vivo, mouse; conditions: oral, 2 months; for decrease in the running time on a treadmill: young C57BL6 mice (12 weeks old); for time to exhaustion: young C57BL6 mice, compared to Vehicle group
Protocol: (§4) Water-suspended Compound #5 was orally administered to C57BL6 mice (12 weeks old) at a dose of 50 mg/kg/day per kg of mouse weight for 2 months ([MA5 high dose addition group], n=5).
Water-suspended Compound #5 was orally administered to C57BL6 mice (12 weeks old) at a dose of 10 mg/kg/day per kg of mouse weight for 2 months ([MA5 low dose addition group], n=5).
In addition, water was orally administered to C57BL6 mice (12 weeks old) for 2 months ([Vehicle group], n=5).

[6] = system: genomic DNA of the liver cells; assay: Degree of methylation of genomic DNA of liver cells by the bisulfite method; type: in vivo, mouse; conditions: oral, 50 mg/kg/day, 2 months
Protocol: as §4, with “n=5). The degree of methylation of the genomic DNA of the liver cells of the young mice was measured by the bisulfite method.” for “n=5).”
Water-suspended Compound #5 was orally administered to C57BL6 mice (92 weeks old) at a dose of 50 mg/kg/day per kg of mouse weight for 2 months ([MA5 addition group], n=5). The degree of methylation of the genomic DNA of the liver cells of the aged mice was measured by the bisulfite method. In Table 9 and Table 10, “Count” represents how many genes were related among genes related to the pathway. For example, in a pathway involving 20 genes, when there are three genes whose expression levels have been varied by administration of Compound #5, Count is 3, and “ %” thereof is a numerical value calculated by (3/20)×100.
“P-value” represents the p-value of the between-group comparison of pathways, and “Benjamini” represents the p-value calculated using the linear step-up method of Benjamini and Hochberg (1995) (see, for example, https://david.ncifcrf.gov/helps/functional_annotation.html for calculation method).

Compound: O=C(CC(C(=O)O)c1c[nH]c2ccccc12)c1ccc(F)cc1F (stereo not shown) [Compound #5, 4-(2,4-difluorophenyl)-2-(1H-indole-3-yl)-4-oxo-butanoic acid]
- expression levels of various SIRTs in the cells [1]: increased
- size of lipid droplets in brown adipose tissue [2]: decrease
- expression of PPARγ Gene [3]: significantly higher
- expression of FABP4 Gene [4]: higher
- decrease in the running time on a treadmill ([5]; 10 mg/kg/day (low dose)): inhibited
- decrease in the running time on a treadmill ([5]; 50 mg/kg/day (high dose)): inhibited
- time to exhaustion ([5]; 10 mg/kg/day (low dose)): significantly improved
- time to exhaustion ([5]; 50 mg/kg/day (high dose)): significantly improved
- methylation of insulin resistance pathway ([6]; aged mice (92 weeks old)): inhibited
- methylation of insulin signaling pathway ([6]; aged mice (92 weeks old)): inhibited
- methylation of Insulin secretion pathway ([6]; young mice (12 weeks old)): inhibited
- methylation of Signaling pathways regulating pluripotency of stem cells ([6]; young mice (12 weeks old)): inhibited
- methylation of Wnt signaling pathway ([6]; young mice (12 weeks old)): inhibited
